Measured values published in patent publication US20070191450A1, “Use of Benzo-Heteroaryl Sulfamide Derivatives for the Treatment of Mania and Bipolar Disorder” (priority 2006, published 2007).

Experiments:
[1] = Median toxic dose (TD50), i.p., listed with the Rat Hippocampal Kindling Test; conditions: Sprague-Dawley, in vivo, ip, Table 4 dose column
dominant rats = assay: Dominant-Submissive assay: Reduction of Dominant Behavior Model (RDBM); type: in vivo, rat; conditions: for treatment time after which dominant behavior was significantly reduced: historical data, FIG. 2, i.p.: lithium 100 mg/kg, carbamazepine 20 mg/kg, VPA 30 mg/kg
Procedure: Dominance and submissiveness, defined in a competition test and measured as the relative success of two food-restricted rats to gain access to a feeder, form a behavioral paradigm—the Dominant Submissive Relationship (DSR). This paradigm results in two models which are predictive of ability of test compounds (drugs) to treat mood disorders.
Test compounds are evaluated for either their ability to inhibit the dominant behavior of rats taking food at the expense of an opponent (reduction of dominant behavior model or RDBM) and thus their potential as treatments for mania; or for their ability to increase the competitive behavior of submissive rats losing such encounters (reduction of submissive behavior model or RSBM) and thus their potential as treatments for depression; (Malatynska, E., and Knapp, R. J., Neuroscience and Biobehavioral Review, 29 (2005) 715-737).
The Reduction of Dominant Behavior Model (RDBM) test, wherein the dominant animals are treated with test compound, is predictive of the ability of the test compound to treat mani. This model was applied to Compound #1 of the present invention, according to the following procedure.
(§1) Male Sprague Dawley rats (140 to 160 g) from Charles River Laboratories Wilmington, Mass. were used in this assay. Shipments of rats were received at two-week intervals. Each shipment went through five-day quarantine, one-week acclimation period, and one-week selection process, followed by five-weeks of drug or vehicle treatment to those pairs selected.
(§2) Rats were housed four per cage. Access to food was restricted to one hour per day after testing on Monday through Thursday. After testing on Friday, rats had free access to food until being fasted again on Sunday. At no time were the rats deprived of water. The food deprivation periods used had little effect on weight gain as the average weight of rats was about 300 g at the end of the study. At the conclusion of experiment rats were sacrificed by decapitation, the trunk blood and brains were collected for in vitro experiments and drug concentration measurements.
(§3) The basic testing apparatus consisted of two chambers connected with a tunnel only large enough to allow one rat to pass through at a time. On the floor, at the mid-point of the tunnel was a container of sweetened milk. […] During the five-minute daily sessions, time spent in the feeder zone by each rat was recorded by the video tracking software and saved into a text file.
(§4) The test began with a random assignment of rats into pairs. […] The time spent in the feeder zone by each animal was recorded. […] Finally, there must have been no “reversals” during the pair selection week where the putative submissive rat out-scored its dominant partner on isolated occasions. […]

[2] = system: hippocampal kindled seizures; assay: Rat Hippocampal Kindling Model (Interruption of Kindled State); type: in vivo; conditions: for ED50: Rattus norvegicus, ip, read-out: ED50 = median therapeutic dose; for After-Discharge Duration (% of control) / Mean Seizure Score: i.p., line of the ED50 dose; for effect on seizure activity: reference drugs
Procedure: In the present rapid hippocampal kindling model adult male Sprague-Dawley rats (300-400 g) were surgically implanted with bipolar electrodes placed in the hippocampus. […] One week later, the rats received 2-3 supra-threshold stimulations delivered every 30 min before compound treatment to ensure stability of the behavioral seizure stage and after-discharge duration. Fifteen minutes after the last stimulation, a single dose of vehicle or test compound was administered i.p (intraperitoneally). After 15 min, each rat was then stimulated every 30 min for 3 to 4 h. After each stimulation, individual seizure scores and after-discharge durations were recorded. The group mean±SEM were calculated for each parameter. Eight rats per dose and a minimum of four doses were used to establish an ED50 value. Efficacy was measured as the ability of a compound to modify the seizure score (severity of spread) and after-discharge duration (ADD; excitability) of the generalized seizures.
Thus, according to the theories presented in current literature (Ghaemi, S. N., Boiman, E. E., and Goodwin, F. K., Soc. of Bio. Psychiatry, (1999), vol. 45, pp 137-144; Stoll, A. L., and Severus, W. E., Harvard Rev. Psychiatry, July/August (1996), Vol. 4, No. 2, pp 77-89) a decrease in seizure score and/or ADD may also be predictive of the ability of a test compound to treat the cycling associated with bipolar disorder.

[3] = system: amygdala kindled seizures; assay: Amygdala Kindling Assay (Kindling Prevention); type: in vivo, rat
submissive rats = assay: Dominant-Submissive assay: Reduction of Submissive Behavior Model (RSBM); type: in vivo, rat
Procedure: The Reduction of Submissive Behavior Model (RSBM) test, wherein the submissive animals are treated with test compound, is predictive of the ability of the test compound to treat depression. This model was applied to Compound #1 of the present invention, according to the following procedure.
as §1, §2, §3, §4
Significant differences between time spent on the feeder by dominant and submissive rats were determined by ANOVA using GraphPad Prism software (GraphPad Software, Inc. San Diego, Calif.) followed by a two-tailed t-test (P<0.05). […]

[4] = system: LTG-resistant amygdala kindled seizures; assay: Lamotrigine Resistant Amygdala Kindled Rat Model (Interruption of Kindled State); type: in vivo; conditions: 100 mg/kg, i.p.
Procedure: Amygdala kindling is less severe than hippocampal kindling, such that many AEDs are effective against amygdala kindled seizures, but are ineffective against hippocampal kindled seizures.
In the LTG-resistant amygdala kindling model, rats were dosed with LTG (5 mg/kg, i.p., q.d.) during the acquisition phase of kindling. […] Once kindled (supra-threshold stimulation of 150 μA biphasic 60 Hz current pulse for 1 second; ˜2 weeks), rats were re-challenged with a high dose of LTG (45 mg/kg, i.p.) one week later to insure resistance. After a 3-4 day wash out period, rats received 2-3 supra-threshold stimulations delivered every 30 min before compound treatment to ensure stability of the behavioral seizure stage and after-discharge duration. Fifteen minutes after the last stimulation, a single dose of vehicle or test compound was administered i.p. After 15 min, each rat was then stimulated every 30 min for 3 to 4 h. After each stimulation, individual seizure scores and after-discharge durations were recorded. The group mean±SEM was calculated for each parameter.

[5] = system: amygdala kindled seizures; conditions: i.p., cited from earlier work
[6] = system: LTG-resistant amygdala kindled seizures; conditions: 5 mg/kg, i.p., q.d.; cited from earlier work
[7] = system: hippocampal kindled seizures; conditions: background statement; cited from earlier work

| Structure (SMILES) | TD50 [1] | ED50 [2] | After-Discharge Duration (% of control) [2] | Mean Seizure Score [2] | effect on seizure activity [2] | other results |
| --- | --- | --- | --- | --- | --- | --- |
| NC(=O)N1c2ccccc2C=Cc2ccccc21 [Carbamazepine, carbamazepine] | 26 mg/kg | 50 mg/kg | 72 ± 13% of control | 2.3 ± 0.6 | suppressed seizure activity, but at doses associated with toxicity | treatment time after which dominant behavior was significantly reduced (dominant rats): 3 weeks |
| NS(=O)(=O)NCc1csc2ccccc12 [Compound #1, N-(benzo[b]thien-3-ylmethyl)-sulfamide] | 100 mg/kg | – | – | – | – | seizure score at the conclusion of the drug- and stimulus-free period versus vehicle ([3]; 100 mg/kg i.p. during acquisition, re-challenged in the absence of drug): remained significantly lower; acquisition of the fully generalized kindled seizure ([3]; 100 mg/kg i.p., FIG. 4): prevented the acquisition of the fully generalized kindled seizure; treatment time after which reduction of submissive behavior was statistically significant (submissive rats; 30 mg/kg p.o. twice a day, p<0.05): 5 weeks; treatment time after which reduction of submissive behavior was statistically significant (submissive rats; 60 mg/kg p.o. twice a day, p<0.01): 17 days; reduction of submissive behavior (antidepressant) (submissive rats; p.o. twice a day for 5 weeks, 6, 30, 60 mg/kg): reduced submissive behavior (antidepressant) in a dose-dependent manner; treatment time after which reduction of dominant behavior was statistically significant (dominant rats; 1.25 mg/kg p.o. BID, p<0.05): 2 weeks; reduction of dominant behavior (dominance level) (dominant rats; p.o. BID 1.25, 6, 30, 60 mg/kg, FIG. 1): reduced dominant behavior in a dose-dependent manner; rats protected ([4]; n=11): Five out of eleven; seizure score after treatment ([4]; reduced from a 5): 3.1 |
| CCC1(C)CC(=O)NC1=O (centres unmarked) [Ethosuximide] | 189 mg/kg | 250 mg/kg | 78 ± 13% of control | 5 ± 0 | ineffective | – |
| Nc1nnc(-c2cccc(Cl)c2Cl)c(N)n1 [LTG, lamotrigine] | – | – | – | – | – | ED50, amygdala kindled seizures ([5]; Cl=4-50 mg/kg): 25 mg/kg; ADD reduced by [5]: 62%; amygdala kindled seizure score [5]: ~2; effect on kindling during acquisition phase [6]: no effect on kindling itself; protection against hippocampal kindled seizures [7]: unable to protect against hippocampal kindled seizures |
| O=C1NC(=O)C(c2ccccc2)(c2ccccc2)N1 [Phenytoin] | 15 mg/kg | 150 mg/kg | 209 ± 43% of control | 4.3 ± 0.3 | suppressed seizure activity, but at doses associated with toxicity | – |
| CCCC(CCC)C(=O)[O-].[Na+] [VPA, sodium valproate] | – | – | – | – | – | treatment time after which dominant behavior was significantly reduced (dominant rats): 1 weeks |
| CCCC(CCC)C(=O)O [Valproic acid] | 316 mg/kg | 350 mg/kg | 3 ± 1.4% of control | 0.3 ± 0.3 | suppressed seizure activity, but at doses associated with toxicity | dose giving protection similar to Compound #1 (toxic doses) ([2]; rat, in vivo): > 300 mg/kg |
